Measured values published in the CheMixHub viscosity set.
± gives the uncertainty stated by the source.

Assay: xn = mol fraction of the nth substance listed

CCCCN(CCO)CCCC + O=S=O
303.15 K, 100 kPa
Conditions | viscosity [mPa·s]
x2 = 0.17 | 19.3
x2 = 0.33 | 198.3
x2 = 0.45 | 2527

[F-].[Na+] + [2H]O[2H]
viscosity [mPa·s], 101 kPa
Conditions | 298.15 K | 308.15 K | 318.15 K
x1 = 0.0054 | 1.159 ± 0.013 | 0.913 ± 0.01 | 0.747 ± 0.008
x1 = 0.0122 | 1.246 ± 0.014 | 0.98 ± 0.011 | 0.8 ± 0.009
x1 = 0.0163 | 1.326 ± 0.015 | 1.043 ± 0.012 | 0.857 ± 0.01

CCC(=O)O + CCc1ccccc1
308.15 K, 101.33 kPa
Conditions | viscosity [mPa·s]
x1 = 0.1393 | 0.5916 ± 0.0076
x1 = 0.2634 | 0.6031 ± 0.0075
x1 = 0.3813 | 0.6196 ± 0.0074
x1 = 0.4881 | 0.6386 ± 0.0074
x1 = 0.5891 | 0.6621 ± 0.0075
x1 = 0.6835 | 0.6881 ± 0.0075
x1 = 0.7694 | 0.721 ± 0.0077
x1 = 0.8518 | 0.7666 ± 0.0079
x1 = 0.9275 | 0.8175 ± 0.0083

CCCCCCCCCCCCC + CCCCO
viscosity [mPa·s], 100 kPa
Conditions | x1 = 0.1001 | x1 = 0.2009 | x1 = 0.2975 | x1 = 0.3918 | x1 = 0.5054 | x1 = 0.6051 | x1 = 0.7 | x1 = 0.7984 | x1 = 0.8908
293.15 K | 2.584 ± 0.055 | 2.319 ± 0.049 | 2.148 ± 0.046 | 2.004 ± 0.043 | 1.901 ± 0.041 | 1.841 ± 0.04 | 1.807 ± 0.039 | 1.788 ± 0.039 | 1.829 ± 0.04
298.15 K | 2.271 ± 0.048 | 2.051 ± 0.044 | 1.905 ± 0.041 | 1.789 ± 0.038 | 1.703 ± 0.036 | 1.644 ± 0.035 | 1.63 ± 0.035 | 1.617 ± 0.035 | 1.668 ± 0.036
303.15 K | 2.006 ± 0.043 | 1.821 ± 0.039 | 1.701 ± 0.036 | 1.606 ± 0.034 | 1.535 ± 0.033 | 1.489 ± 0.032 | 1.48 ± 0.032 | 1.469 ± 0.032 | 1.522 ± 0.033
308.15 K | 1.782 ± 0.038 | 1.625 ± 0.035 | 1.524 ± 0.033 | 1.448 ± 0.031 | 1.391 ± 0.03 | 1.353 ± 0.029 | 1.351 ± 0.029 | 1.342 ± 0.029 | 1.386 ± 0.03
313.15 K | 1.591 ± 0.034 | 1.459 ± 0.031 | 1.374 ± 0.029 | 1.312 ± 0.028 | 1.268 ± 0.027 | 1.246 ± 0.027 | 1.239 ± 0.027 | 1.231 ± 0.027 | 1.265 ± 0.027
318.15 K | 1.426 ± 0.03 | 1.314 ± 0.028 | 1.245 ± 0.027 | 1.194 ± 0.026 | 1.161 ± 0.025 | 1.152 ± 0.025 | 1.139 ± 0.025 | 1.133 ± 0.024 | 1.158 ± 0.025
323.15 K | 1.283 ± 0.027 | 1.19 ± 0.025 | 1.132 ± 0.024 | 1.092 ± 0.023 | 1.066 ± 0.023 | 1.059 ± 0.023 | 1.052 ± 0.023 | 1.048 ± 0.023 | 1.068 ± 0.023

CCC(=O)O + CC(C)O
viscosity [mPa·s], 101 kPa
Conditions | x2 = 0.007361 | x2 = 0.0288 | x2 = 0.04944 | x2 = 0.06903 | x2 = 0.1 | x2 = 0.1291 | x2 = 0.1819 | x2 = 0.2287
298.15 K | 2.67 ± 0.54 | 2.6 ± 0.52 | 2.54 ± 0.51 | 2.475 ± 0.5 | 2.4 ± 0.48 | 2.342 ± 0.47 | 2.277 ± 0.46 | 2.22 ± 0.45
308.15 K | 1.99 ± 0.4 | 1.948 ± 0.39 | 1.915 ± 0.39 | 1.882 ± 0.38 | 1.836 ± 0.37 | 1.8 ± 0.36 | 1.75 ± 0.35 | 1.71 ± 0.34
318.15 K | 1.54 ± 0.31 | 1.52 ± 0.31 | 1.5 ± 0.3 | 1.484 ± 0.3 | 1.454 ± 0.29 | 1.428 ± 0.29 | 1.392 ± 0.28 | 1.367 ± 0.28
